Measurements: patent US20250136570A1 (Tango Therapeutics, Inc., priority 2021, published 2025)
pIC50: −log10 of the molar value.

Assays:
HDAC3/NCor2 = HDAC3/NCor2 (Homo sapiens (Human), UniProt O15379); test: HDAC3 inhibition, Fluor de Lys fluorescent enzyme assay; assay type: biochemical; conditions: 3 hours pre-incubation at room temp; 1.2 nM enzyme; 16 μM Fluor de Lys substrate; duplicate
Source text: (§1) Recombinant HDAC1 (cat #: 50051) and HDAC3/NCor2 (cat #: 50003) enzymes were purchased from BPS Bioscience (San Diego, CA, US). Assay reagents for the detection of HDAC enzyme activity (Fluor de Lys®—Green substrate and Developer kits) were purchased from Enzo Life Science (Farmingdale, NY, US). Plates used to conduct the enzyme reaction were Proxiplate-384 (cat #: 6008280) Plus from PerkinElmer (Waltham, MA, US). TSA, an HDAC inhibitor, was purchased from Enzo Life Science (cat #BML-GR309-9090) The remainder of the reagents used to prepare the assay buffer were purchased from Sigma-Aldrich (St Louis, MO, US). Unless stated otherwise, HDAC1 and 3 assays were conducted in 50 mM Tris buffer, pH 8, 137 mM NaCl, 2.7 mM KCl, 0.01% BSA.
(§2) IC50 determination for HDAC1 and HDAC3—Prior to adding reagents, 50 nL/well of compound were added to Proxiplates using an Echo dispenser instrument (Beckman Coulter, CA, US). After addition of compound, 2.5 μL/well of 2× enzyme solution was added and the enzyme was pre-incubated with compound for 3 hours at room temp. (˜22° C.). After the pre-incubation period, the enzyme reaction was initiated by adding 2.5 μL/well of 2× Fluor de Lys® substrate solution. The assay reaction was stopped after one hour by adding 5 μl/well of a 0.66× Developer solution containing TSA (3.2 μM). The final product of the enzyme reaction was read using a Spectramax plate reader instrument (Molecular Devices, CA, US) using a fluorescent readout (Ex 360 nm/Em 460 nm). The final enzyme concentrations in the assay buffer for HDAC1 and 3 were 6 and 1.2 nM, respectively. The final Fluor de Lys® substrate concentration in the assay buffer was 16 μM for all HDAC enzymes. IC50 values were determined using the following equation: […]
(§3) Where Efree and Eo are the free and total amount of HDAC enzyme in the reaction mixture, n is the hill coefficient, I is the free inhibitor concentration, and IC50 is the measure of the potency equivalent to the inhibitor concentration that leads to a 50% occupancy of the total enzyme. Each data was generated in duplicate.

Recombinant HDAC1 = Recombinant HDAC1 (Homo sapiens (Human), UniProt Q13547); test: HDAC1 inhibition, Fluor de Lys fluorescent enzyme assay; assay type: biochemical; conditions: 3 hours pre-incubation at room temp; 6 nM enzyme; 16 μM Fluor de Lys substrate; duplicate
Sequence of Recombinant HDAC1 (Q13547 whole entry): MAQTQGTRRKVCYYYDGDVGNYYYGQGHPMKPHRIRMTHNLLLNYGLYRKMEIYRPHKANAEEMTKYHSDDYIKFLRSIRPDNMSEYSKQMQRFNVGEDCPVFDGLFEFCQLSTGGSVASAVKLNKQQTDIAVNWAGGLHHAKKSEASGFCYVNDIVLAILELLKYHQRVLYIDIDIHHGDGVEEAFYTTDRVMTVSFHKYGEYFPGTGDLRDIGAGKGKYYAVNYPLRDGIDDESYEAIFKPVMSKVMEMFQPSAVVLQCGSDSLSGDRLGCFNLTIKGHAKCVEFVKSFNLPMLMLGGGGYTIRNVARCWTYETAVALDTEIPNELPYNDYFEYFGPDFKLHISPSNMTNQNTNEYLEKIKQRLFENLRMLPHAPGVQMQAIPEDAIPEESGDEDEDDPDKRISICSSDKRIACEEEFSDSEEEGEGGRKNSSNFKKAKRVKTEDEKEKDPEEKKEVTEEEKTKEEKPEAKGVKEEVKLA
Source text: as §1, §2, §3

Sequence of HDAC3/NCor2 (O15379 whole entry): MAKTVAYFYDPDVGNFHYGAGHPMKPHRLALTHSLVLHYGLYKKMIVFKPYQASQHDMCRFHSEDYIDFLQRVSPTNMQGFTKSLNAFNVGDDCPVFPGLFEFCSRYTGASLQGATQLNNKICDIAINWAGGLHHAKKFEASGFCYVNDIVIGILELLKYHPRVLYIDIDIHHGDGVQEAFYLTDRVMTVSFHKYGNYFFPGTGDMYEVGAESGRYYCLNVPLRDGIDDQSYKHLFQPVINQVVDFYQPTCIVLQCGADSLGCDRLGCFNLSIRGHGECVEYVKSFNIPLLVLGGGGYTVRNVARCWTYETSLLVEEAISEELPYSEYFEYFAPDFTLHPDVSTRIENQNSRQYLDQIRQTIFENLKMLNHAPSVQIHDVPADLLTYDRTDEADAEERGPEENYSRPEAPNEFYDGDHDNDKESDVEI
Sequence of HDAC3/NCor2 (Q9Y618 395-489 partner): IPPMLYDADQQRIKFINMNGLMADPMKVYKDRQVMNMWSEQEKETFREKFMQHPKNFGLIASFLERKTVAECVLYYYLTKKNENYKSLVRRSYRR

| pIC50 (HDAC3/NCor2) | pIC50 (Recombinant HDAC1) | Compound |
| --- | --- | --- |
| < 5.70 | > 7.00 | N=S(=O)(c1ccc(C(=O)Nc2cc(-c3ccc(F)cc3)ccc2N)cc1)c1ccc(C(F)(F)F)cc1 (stereo not drawn) [Compound 256, N-[2-amino-5-(4-fluorophenyl)phenyl]-4-[[4-(trifluoromethyl)phenyl]sulfonimidoyl]benzamide] |
| 5.70 to 6.30 | > 7.00 | CS(=N)(=O)c1ccc(C(=O)Nc2cc(-c3cccs3)ccc2O)cc1 (stereo not drawn) [Compound 123, N-[2-hydroxy-5-(2-thienyl)phenyl]-4-(methylsulfonimidoyl)benzamide] |
| 5.70 to 6.30 | > 7.00 | N=S(=O)(c1ccc(C(=O)Nc2cc(-c3ccc(F)cc3)ccc2N)cc1)c1cccnc1 (stereo not drawn) [Compound 172, N-[2-amino-5-(4-fluorophenyl)phenyl]-4-(3-pyridylsulfonimidoyl)benzamide] |
| 5.70 to 6.30 | > 7.00 | CS(=N)(=O)c1ccc(C(=O)Nc2cc(-c3ccc(Cl)s3)ccc2N)cc1 (stereo not drawn) [Compound 137, N-[2-amino-5-(5-chloro-2-thienyl)phenyl]-4-(methylsulfonimidoyl)benzamide] |
| 6.30 to 7.00 | > 7.00 | CS(=N)(=O)c1ccc2oc(C(=O)Nc3cc(-c4ccc(F)cc4)ccc3N)cc2c1 (stereo not drawn) [Compound 171, N-(4-amino-4′-fluoro-[1,1′-biphenyl]-3-yl)-5-(S-methylsulfonimidoyl)benzofuran-2-carboxamide] |
| < 5.70 | < 5.70 | CS(=N)(=O)c1ccc(C(=O)Nc2cc(-c3cncnc3)ccc2N)cc1 (stereo not drawn) [Compound 151, N-(2-amino-5-pyrimidin-5-yl-phenyl)-4-(methylsulfonimidoyl)benzamide] |
| 5.70 to 6.30 | > 7.00 | N=S(=O)(c1ccc(C(=O)Nc2cc(-c3ccc(F)cc3)ccc2N)cc1)C1CC1 (racemic) [Compound 111, rac-N-[2-amino-5-(4-fluorophenyl)phenyl]-4-(cyclopropylsulfonimidoyl)benzamide] |
| 5.70 to 6.30 | > 7.00 | CS(=N)(=O)c1cc2cc(C(=O)Nc3cc(-c4ccc(F)cc4)ccc3N)ccc2o1 (stereo not drawn) [Compound 248, N-[2-amino-5-(4-fluorophenyl)phenyl]-2-(methylsulfonimidoyl)benzofuran-5-carboxamide] |
| 5.70 to 6.30 | > 7.00 | N=[S@](=O)(c1ccc(C(=O)Nc2cc(-c3ccc(F)s3)ccc2N)cc1)C1CC1 (single isomer, unassigned) [Compound 131] |
| < 5.70 | < 5.70 | CC(=O)c1ccc(-c2ccc(N)c(NC(=O)c3ccc(S(C)(=N)=O)cc3)c2)s1 (stereo not drawn) [Compound 241, N-[5-(5-acetyl-2-thienyl)-2-amino-phenyl]-4-(methylsulfonimidoyl)benzamide] |
| 5.70 to 6.30 | > 7.00 | N=[S@](=O)(c1ccc(C(=O)Nc2cc(-c3cccs3)ccc2N)cc1)C1CC1 (single isomer, unassigned) [Compound 114] |
| 5.70 to 6.30 | > 7.00 | C[S@](=N)(=O)c1ccc(C(=O)Nc2cc(-c3cccs3)ccc2N)cc1 (single isomer, unassigned) [Compound 106] |
| 5.70 to 6.30 | > 7.00 | C=C(C)c1cncc(S(=N)(=O)c2ccc(C(=O)Nc3cc(-c4ccc(F)cc4)ccc3N)cc2)c1 (stereo not drawn) [Compound 225, N-[2-amino-5-(4-fluorophenyl)phenyl]-4-[(5-isopropenyl-3-pyridyl)sulfonimidoyl]benzamide] |
| 6.30 to 7.00 | > 7.00 | CS(=N)(=O)c1ccc(C(=O)Nc2cc(-c3ccc(F)cc3)ccc2N)s1 (stereo not drawn) [Compound 161, N-[2-amino-5-(4-fluorophenyl)phenyl]-5-(methylsulfonimidoyl)thiophene-2-carboxamide] |
| 5.70 to 6.30 | > 7.00 | N=S(=O)(c1ccccn1)c1ccc(C(=O)Nc2cc(-c3ccc(F)cc3)ccc2N)cn1 (stereo not drawn) [Compound 175, N-[2-amino-5-(4-fluorophenyl)phenyl]-6-(2-pyridylsulfonimidoyl)pyridine-3-carboxamide] |
| 5.70 to 6.30 | > 7.00 | N=S(=O)(c1ccc(C(=O)Nc2cc(-c3ccc(F)cc3)ccc2N)cc1)c1ccc(F)cn1 (stereo not drawn) [Compound 247, N-[2-amino-5-(4-fluorophenyl)phenyl]-4-[(5-fluoro-2-pyridyl)sulfonimidoyl]benzamide] |
| 5.70 to 6.30 | > 7.00 | Nc1ccc(-c2ccc(F)cc2)cc1NC(=O)c1ccc([S@]2(=O)=NCCC2)cc1 (stereo in doubt) [Compound 184, N-[2-amino-5-(4-fluorophenyl)phenyl]-4-[rel-(1S)-1-oxo-4,5-dihydro-3H-isothiazol-1-yl]benzamide] |
| < 5.70 | > 7.00 | Cc1ccc(-c2ccc(N)c(NC(=O)c3ccc(S(C)(=N)=O)cc3)c2)cc1 (stereo not drawn) [Compound 136, N-[2-amino-5-(p-tolyl)phenyl]-4-(methylsulfonimidoyl)benzamide] |
| 5.70 to 6.30 | > 7.00 | N=S(=O)(c1ccc(C(=O)Nc2cc(-c3ccc(F)cc3)ccc2N)cc1)c1cnccn1 (stereo not drawn) [Compound 195, N-[2-amino-5-(4-fluorophenyl)phenyl]-4-(pyrazin-2-ylsulfonimidoyl)benzamide] |
| 6.30 to 7.00 | > 7.00 | N=S(=O)(c1ccc(C(=O)Nc2cc(-c3ccc(F)cc3)ccc2N)cc1)c1ncc[nH]1 (stereo not drawn) [Compound 257, N-[2-amino-5-(4-fluorophenyl)phenyl]-4-(1H-imidazol-2-ylsulfonimidoyl)benzamide] |
| < 5.70 | > 7.00 | CS(=N)(=O)c1ccc(C(=O)Nc2cc(-c3cccc(C(N)=O)c3)ccc2N)cc1 (stereo not drawn) [Compound 180, 3-[4-amino-3-[[4-(methylsulfonimidoyl)benzoyl]amino]phenyl]benzamide] |
| 5.70 to 6.30 | > 7.00 | CCN=S(C)(=O)c1ccc2oc(C(=O)Nc3cc(-c4ccc(F)cc4)ccc3N)cc2c1 (stereo not drawn) [Compound 237, N-[2-amino-5-(4-fluorophenyl)phenyl]-5-(N-ethyl-S-methyl-sulfonimidoyl)benzofuran-2-carboxamide] |
| 5.70 to 6.30 | > 7.00 | CS(=N)(=O)c1ccc(C(=O)Nc2cc(-c3ccsc3)ccc2N)cc1 (stereo not drawn) [Compound 249, N-[2-amino-5-(3-thienyl)phenyl]-4-(methylsulfonimidoyl)benzamide] |
| 5.70 to 6.30 | > 7.00 | CS(=N)(=O)c1ccc2oc(C(=O)Nc3cc(-c4ccc(F)cc4)ccc3N)cc2n1 (stereo not drawn) [Compound 189, N-[2-amino-5-(4-fluorophenyl)phenyl]-5-(methylsulfonimidoyl)furo[3,2-b]pyridine-2-carboxamide] |
| 5.70 to 6.30 | > 7.00 | N=S(=O)(c1ccc(C(=O)Nc2cc(-c3ccc(F)cc3)ccc2N)cn1)c1cnc[nH]1 (stereo not drawn) [Compound 219, N-[2-amino-5-(4-fluorophenyl)phenyl]-6-(1H-imidazol-5-ylsulfonimidoyl)pyridine-3-carboxamide] |
| 5.70 to 6.30 | > 7.00 | CS(=N)(=O)c1cnc(C(=O)Nc2cc(-c3ccc(F)cc3)ccc2N)s1 (stereo not drawn) [Compound 188, N-[2-amino-5-(4-fluorophenyl)phenyl]-5-(methylsulfonimidoyl)thiazole-2-carboxamide] |
| 5.70 to 6.30 | > 7.00 | CS(=N)(=O)c1ccc(C(=O)Nc2cc(-c3ccc(F)cc3)ccc2N)cn1 (stereo not drawn) [Compound 129, N-[2-amino-5-(4-fluorophenyl)phenyl]-6-(methylsulfonimidoyl)pyridine-3-carboxamide] |
